Results published in US9133204B2, “5-membered heterocyclic amides and related compounds” (H. Lundbeck A/S, priority 2007, dated 2015).

Target: T1, P2X7 receptor (Homo sapiens, UniProt Q99572)
T1 construct: host or cells: SH-SY5Y
T1 sequence (Q99572 1-595): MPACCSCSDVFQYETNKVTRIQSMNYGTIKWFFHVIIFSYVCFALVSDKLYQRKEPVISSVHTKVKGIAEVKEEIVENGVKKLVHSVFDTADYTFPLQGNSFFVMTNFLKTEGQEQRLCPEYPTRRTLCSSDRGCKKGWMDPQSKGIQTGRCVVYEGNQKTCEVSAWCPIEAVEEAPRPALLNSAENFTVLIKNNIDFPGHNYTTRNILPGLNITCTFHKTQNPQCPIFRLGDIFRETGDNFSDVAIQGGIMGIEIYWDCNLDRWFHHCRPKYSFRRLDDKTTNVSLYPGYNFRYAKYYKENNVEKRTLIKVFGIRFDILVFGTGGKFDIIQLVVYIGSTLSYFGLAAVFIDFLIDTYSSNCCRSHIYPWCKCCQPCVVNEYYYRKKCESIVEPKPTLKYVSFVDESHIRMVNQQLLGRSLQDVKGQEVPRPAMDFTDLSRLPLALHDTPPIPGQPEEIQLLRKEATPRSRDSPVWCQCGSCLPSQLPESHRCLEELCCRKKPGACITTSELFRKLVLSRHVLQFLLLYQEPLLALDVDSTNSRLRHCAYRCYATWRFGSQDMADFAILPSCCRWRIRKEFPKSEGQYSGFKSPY
Test: High throughput P2X7 calcium mobilization assay (Example 4A)
Assay type: cell-based
Conditions: SH-SY5Y cells; 50% decrease in fluorescence response of cells exposed to 80 μM BzATP; Table I
Procedure, shortened: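 SH-SY5Y cells loaded with 2.3 μM Fluo-4 AM for 1 h at 37 °C, then preincubated 1 h at room temperature with test compound (final 1–2500 nM) in low-sodium sucrose buffer, pH 7.4. Antagonism measured against 80 μM BzATP (about EC50) as peak FLIPR calcium fluorescence over 2 min, corrected by no-agonist background.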

Compound `O=C(NC1C2CC3CC(C2)CC1C3)c1cn(-c2ncccn2)nc1C(F)(F)F` (stereo not drawn) [Compound 217, N-adamantan-2-yl-1-pyrimidin-2-yl-3-(trifluoromethyl)-1H-pyrazole-4-carboxamide] has an IC50 of no more than 2000 nM.

In the case of `O=C(NCCc1ccccc1Br)c1cn(-c2ncccn2)nc1C(F)(F)F` [Compound 218, N-[2-(2-bromophenyl)ethyl]-1-pyrimidin-2-yl-3-(trifluoromethyl)-1H-pyrazole-4-carboxamide], the IC50 is reported as no more than 2000 nM.

`CCc1nc(-c2ncccn2)sc1C(=O)NCC1(c2cccnc2)CCCCC1` [Compound 219, 4-ethyl-N-[(1-pyridin-3-ylcyclohexyl)methyl]-2-pyrimidin-2-yl-1,3-thiazole-5-carboxamide] was tested, and the IC50 was no more than 2000 nM.

For `CCc1nc(-c2ncccn2)sc1C(=O)NCC(CC(C)C)c1ccc(C(F)(F)F)cc1` (stereo not drawn) [Compound 220, 4-ethyl-N-{4-methyl-2-[4-(trifluoromethyl)phenyl]pentyl}-2-pyrimidin-2-yl-1,3-thiazole-5-carboxamide], the IC50 was no more than 2000 nM.

`CCc1nc(-c2ncccn2)sc1C(=O)NCc1ccc(F)cc1Cl` [Compound 231, N-(2-chloro-4-fluorobenzyl)-4-ethyl-2-pyrimidin-2-yl-1,3-thiazole-5-carboxamide] showed an IC50 of no more than 2000 nM.

`CCc1nc(-c2ncccn2)sc1C(=O)NC1CC(C)CC(C)(C)C1` (stereo not drawn) [Compound 236, 4-ethyl-2-pyrimidin-2-yl-N-(3,3,5-trimethylcyclohexyl)-1,3-thiazole-5-carboxamide] showed an IC50 of no more than 2000 nM.

In the case of `CCc1nc(-c2ncccn2)sc1C(=O)NCC12CC3CC(CC(C3)C1)C2` [Compound 247, N-(adamantan-1-ylmethyl)-4-ethyl-2-pyrimidin-2-yl-1,3-thiazole-5-carboxamide], the IC50 is reported as no more than 2000 nM.

For `CCc1nc(-c2ncccn2)sc1C(=O)NC[C@@H]1CCC2CC1C2(C)C` (stereo partly drawn) [Compound 248, N-{[(2R)-6,6-dimethylbicyclo[3.1.1]hept-2-yl]methyl}-4-ethyl-2-pyrimidin-2-yl-1,3-thiazole-5-carboxamide], the IC50 was no more than 2000 nM.

`CCc1nc(-c2ncccn2)sc1C(=O)NCC(CC(C)C)c1ccc(Cl)cc1` (stereo not drawn) [Compound 249, N-[2-(4-chlorophenyl)-4-methylpentyl]-4-ethyl-2-pyrimidin-2-yl-1,3-thiazole-5-carboxamide] showed an IC50 of no more than 2000 nM.

For `CCc1nc(-c2ncccn2)sc1C(=O)NCC1(c2ccc(OC)cc2)CCCCC1` [Compound 250, 4-ethyl-N-{[1-(4-methoxyphenyl)cyclohexyl]methyl)-2-pyrimidin-2-yl-1,3-thiazole-5-carboxamide], the IC50 was no more than 2000 nM.

Compound `CCc1nc(-c2ncccn2)sc1C(=O)NCC(CC(C)C)c1ccccc1` (stereo not drawn) [Compound 258, 4-ethyl-N-(4-methyl-2-phenylpentyl)-2-pyrimidin-2-yl-1,3-thiazole-5-carboxamide] has an IC50 of no more than 2000 nM.

With `CCc1nc(-c2ncccn2)sc1C(=O)NCC1(c2ccc(OC)cc2)CCCC1` [Compound 269, 4-ethyl-N-{[1-(4-methoxyphenyl)cyclopentyl]methyl}-2-pyrimidin-2-yl-1,3-thiazole-5-carboxamide] the IC50 was no more than 2000 nM.

With `CCc1nc(-c2ncccn2)sc1C(=O)NCC(CC(C)C)c1ccc(C)cc1` (stereo not drawn) [Compound 275, 4-ethyl-N-[4-methyl-2-(4-methylphenyl)pentyl]-2-pyrimidin-2-yl-1,3-thiazole-5-carboxamide] the IC50 was no more than 2000 nM.

`CCc1nc(-c2ncccn2)sc1C(=O)NCC1(c2ccc(Cl)cc2)CCCCC1` [Compound 276, N-{[1-(4-chlorophenyl)cyclohexyl]methyl}-4-ethyl-2-pyrimidin-2-yl-1,3-thiazole-5-carboxamide] showed an IC50 of no more than 2000 nM.

`CCCC(CNC(=O)c1sc(-c2ncccn2)nc1CC)c1ccc(Cl)cc1` (stereo not drawn) [Compound 277, N-[2-(4-chlorophenyl)pentyl]-4-ethyl-2-pyrimidin-2-yl-1,3-thiazole-5-carboxamide] gave an IC50 of no more than 2000 nM.

`COc1ccc(C2(CNC(=O)c3sc(-c4ncccn4)nc3C(F)(F)F)CCCC2)cc1` [Compound 285, N-{[1-(4-methoxyphenyl)cyclopentyl]methyl}-2-pyrimidin-2-yl-4-(trifluoromethyl)-1,3-thiazole-5-carboxamide] gave an IC50 of no more than 2000 nM.

With `O=C(NCC(c1ccc(Cl)cc1)N1CCCC1)c1sc(-c2ncccn2)nc1C(F)(F)F` (stereo not drawn) [Compound 286, N-[2-(4-chlorophenyl)-2-pyrrolidin-1-ylethyl]-2-pyrimidin-2-yl-4-(trifluoromethyl)-1,3-thiazole-5-carboxamide] the IC50 was no more than 2000 nM.

`O=C(NCC1(c2ccc(Cl)nc2)CCCC1)c1sc(-c2ncccn2)nc1C(F)(F)F` [Compound 287, N-{[1-(6-chloropyridin-3-yl)cyclopentyl]methyl}-2-pyrimidin-2-yl-4-(trifluoromethyl)-1,3-thiazole-5-carboxamide] showed an IC50 of no more than 2000 nM.

In the case of `CCc1nc(-c2ncccn2)sc1C(=O)NCC1(c2ccc(Cl)nc2)CCCC1` [Compound 288, N-{[1-(6-chloropyridin-3-yl)cyclopentyl]methyl}-4-ethyl-2-pyrimidin-2-yl-1,3-thiazole-5-carboxamide], the IC50 is reported as no more than 2000 nM.

`Cc1nc(-c2ncccn2)sc1C(=O)NCC1(c2cccnc2)CCCCC1` [Compound 289, 4-methyl-N-[(1-pyridin-3-ylcyclohexyl)methyl]-2-pyrimidin-2-yl-1,3-thiazole-5-carboxamide] showed an IC50 of no more than 2000 nM.

`Cc1nc(-c2ncccn2)sc1C(=O)NCC(CC(C)C)c1ccc(C(F)(F)F)cc1` (stereo not drawn) [Compound 290, 4-methyl-N-{4-methyl-2-[4-(trifluoromethyl)phenyl]pentyl}-2-pyrimidin-2-yl-1,3-thiazole-5-carboxamide] was tested, and the IC50 was no more than 2000 nM.

`O=C(NCC1(c2ccc(Cl)nc2)CCCCC1)c1sc(-c2ncccn2)nc1C(F)(F)F` [Compound 291, N-{[1-(6-chloropyridin-3-yl)cyclohexyl]methyl}-2-pyrimidin-2-yl-4-(trifluoromethyl)-1,3-thiazole-5-carboxamide] gave an IC50 of no more than 2000 nM.

`CC(C)CC(CNC(=O)c1sc(-c2ncccn2)nc1C(F)(F)F)c1ccc(Cl)nc1` (stereo not drawn) [Compound 292, N-[2-(6-chloropyridin-3-yl)-4-methylpentyl]-2-pyrimidin-2-yl-4-(trifluoromethyl)-1,3-thiazole-5-carboxamide] gave an IC50 of no more than 2000 nM.

With `O=C(NCC1(c2cccnc2)CCCCC1)c1sc(-n2ccccc2=O)nc1C(F)(F)F` [Compound 293, 2-(2-oxopyridin-1(2H)-yl)-N-[(1-pyridin-3-ylcyclohexyl)methyl]-4-(trifluoromethyl)-1,3-thiazole-5-carboxamide] the IC50 was no more than 2000 nM.

With `O=C(NCC1(c2cccnc2)CCCCC1)c1sc(N2CCOCC2)nc1C(F)(F)F` [Compound 294, 2-morpholin-4-yl-N-[(1-pyridin-3-ylcyclohexyl)methyl]-4-(trifluoromethyl)-1,3-thiazole-5-carboxamide] the IC50 was no more than 2000 nM.

`O=C(NCC1(c2cccnc2)CCCCC1)c1sc(N2CCC(O)CC2)nc1C(F)(F)F` [Compound 295, 2-(4-hydroxypiperidin-1-yl)-N-[(1-pyridin-3-ylcyclohexyl)methyl]-4-(trifluoromethyl)-1,3-thiazole-5-carboxamide] showed an IC50 of no more than 2000 nM.

`O=C(NCC1(N2CCCCC2)CCCCC1)c1sc(-c2ncccn2)nc1C(F)(F)F` [Compound 296, N-[(1-piperidin-1-ylcyclohexyl)methyl]-2-pyrimidin-2-yl-4-(trifluoromethyl)-1,3-thiazole-5-carboxamide] was tested, and the IC50 was no more than 2000 nM.
